Values quoted from earlier work as cited in article PMC3090270 (Structure (London, England : 1993), 2010).

How the values were obtained:
RI subunits = conditions: ref Huang et al., 1997b (D-AKAP1), 1997a (D-AKAP2), Reinton et al., 2000 (AKAP220), Gronholm et al., 2003 (Merlin), Li et al., 2001 (Pap7)
cardiac myocytes = conditions: H2O2 treatment, ref Brennan et al., 2006

| binding to RI subunits (dual-specific) (RI subunits) | Compound | disulfide formation in RIα D/D (cardiac myocytes) | nuclear localization of PKA (cardiac myocytes) |
| --- | --- | --- | --- |
| bind RI subunits | AKAP220: dual-specific AKAP |  |  |
|  | OO [H2O2] | increased disulfide bond formation | nuclear localization of PKA |
